According to patent publication US10508085B2, “Compounds and methods for IDO and TDO modulation, and indications therefor” (Plexxikon Inc., priority 2016, dated 2019):

Tests used:
[1] = molecular target: T1, Human Indoleamine 2,3-dioxygenase (IDO) (Homo sapiens, UniProt P14902); assay: Human IDO enzymatic assay (kynurenine level); type: biochemical; details: 6 nM IDO, 10 μM L-Trp; geometric mean; read-out: IDO1 GMean: IC50 (μM) (Biochemical Assay)
T1 construct: His tag (N); made in house; host or cells: E. coli
T1 sequence (P14902 whole entry): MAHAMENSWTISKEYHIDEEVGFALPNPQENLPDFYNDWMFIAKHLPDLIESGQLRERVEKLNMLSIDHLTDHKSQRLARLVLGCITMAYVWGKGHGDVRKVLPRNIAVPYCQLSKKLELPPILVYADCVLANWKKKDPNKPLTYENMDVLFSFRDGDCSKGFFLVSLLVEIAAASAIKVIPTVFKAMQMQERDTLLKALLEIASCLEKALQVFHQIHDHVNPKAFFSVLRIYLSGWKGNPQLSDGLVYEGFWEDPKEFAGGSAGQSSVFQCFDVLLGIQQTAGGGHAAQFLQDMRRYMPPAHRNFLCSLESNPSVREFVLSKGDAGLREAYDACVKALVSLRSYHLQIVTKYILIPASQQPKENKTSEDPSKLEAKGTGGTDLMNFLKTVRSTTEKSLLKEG
Method in brief: (§1)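 IDO conditions: 6 nM His-IDO, 10 μM L-Trp, 5 μM methylene blue, 20 min, RT. TDO conditions: 1 nM His-TDO, 350 μM L-Trp, 0.4 μM methylene blue, 70 min, RT. Both used pH 6.5 phosphate plus ascorbate/catalase, TCA stop at 50° C, kynurenine readout, nonlinear-regression IC50.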

[2] = molecular target: T2, human TDO (TDO-expressing HEK293 cells) (Homo sapiens, UniProt P48775); assay: Cell based kynurenine assay, TDO-expressing HEK293 cell clones; details: TDO-expressing HEK293 cells, 24 hours incubation; geometric mean; read-out: HEK293 TDO Kynurenine GMean IC50 (μM) (Cellular Assay)
T2 construct: expressed in transfected cells
T2 sequence (P48775 whole entry): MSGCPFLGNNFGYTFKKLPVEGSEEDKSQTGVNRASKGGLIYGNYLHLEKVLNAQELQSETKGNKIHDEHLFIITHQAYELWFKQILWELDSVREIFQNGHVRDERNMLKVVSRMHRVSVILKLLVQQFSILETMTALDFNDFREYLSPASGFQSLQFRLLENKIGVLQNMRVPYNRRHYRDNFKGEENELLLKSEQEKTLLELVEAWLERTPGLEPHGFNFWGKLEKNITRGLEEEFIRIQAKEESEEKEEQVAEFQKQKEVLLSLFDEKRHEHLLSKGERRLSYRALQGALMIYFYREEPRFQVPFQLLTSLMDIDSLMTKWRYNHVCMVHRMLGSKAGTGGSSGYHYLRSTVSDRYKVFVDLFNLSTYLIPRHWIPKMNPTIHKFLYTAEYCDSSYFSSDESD
Method in brief: (§2)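 Steps: seed IDO1- or TDO-expressing HEK293 cells at 2.5×10^4 per well; add compound dilutions; incubate 24 h; transfer supernatant and determine kynurenine; derive IC50 via nonlinear regression of percent inhibition.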

[3] = molecular target: T3, human IDO (IDO1-expressing HEK293 cells) (Homo sapiens, UniProt P14902); assay: Cell based kynurenine assay, IDO1-expressing HEK293 cell clones; details: IDO1-expressing HEK293 cells, 24 hours incubation; geometric mean; read-out: HEK293 IDO1 Kynurenine GMean IC50 (μM) (Cellular Assay)
T3 construct: expressed in transfected cells
T3 sequence (P14902 whole entry): as the sequence (P14902 whole entry) above
Method in brief: as §2

[4] = molecular target: T4, Human Tryptophan 2,3-dioxygenase (TDO) (Homo sapiens, UniProt P48775); assay: Human TDO enzymatic assay (kynurenine level); type: biochemical; details: 1 nM TDO, 350 μM L-Trp; geometric mean; read-out: TDO GMean: IC50 (μM) (Biochemical Assay)
T4 construct: His tag (N); made in house; host or cells: E. coli
T4 sequence (P48775 whole entry): as the sequence (P48775 whole entry) above
Method in brief: as §1

Measured: IC50

CC(=O)N1C[C@H]2CC[C@@H](C1)[C@H]2C(F)(F)C(O)c1cc(Cl)cc2cn[nH]c12 (stereo partly drawn) [Compound P-0302, 1-((1R,5S,8s)-8-(2-(5-chloro-1H-indazol-7-yl)-1,1-difluoro-2-hydroxyethyl)-3-azabicyclo[3.2.1]octan-3-yl)ethan-1-one]
0.0001 to 10 µM: all assays above

CC(=O)N1C[C@H]2CC[C@@H](C1)[C@@H]2C(F)(F)C(O)c1cc(Cl)cc2cn[nH]c12 (stereo partly drawn) [Compound P-0303, 1-((1R,5S,8s)-8-(2-(5-chloro-1H-indazol-7-yl)-1,1-difluoro-2-hydroxyethyl)-3-azabicyclo[3.2.1]octan-3-yl)ethan-1-one]
0.0001 to 10 µM: all assays above

CCS(=O)(=O)N1CCC(C(C)(C)C(O)c2cc(Cl)cc3cn[nH]c23)CC1 (centres unmarked) [Compound P-0304, 1-(5-chloro-1H-indazol-7-yl)-2-(1-(ethylsulfonyl)piperidin-4-yl)-2-methylpropan-1-ol]
0.0001 to 10 µM: all assays above

CCCS(=O)(=O)N1CCC(C(C)(C)C(O)c2cc(Cl)cc3cn[nH]c23)CC1 (centres unmarked) [Compound P-0305, 1-(5-chloro-1H-indazol-7-yl)-2-methyl-2-(1-(propylsulfonyl)piperidin-4-yl)propan-1-ol]
0.0001 to 10 µM: all assays above

CC(C)(C1CCN(S(=O)(=O)C2CC2)CC1)C(O)c1cc(Cl)cc2cn[nH]c12 (centres unmarked) [Compound P-0306]
0.0001 to 10 µM: all assays above

CC(C)S(=O)(=O)N1CCC(C(C)(C)C(O)c2cc(Cl)cc3cn[nH]c23)CC1 (centres unmarked) [Compound P-0307, 1-(5-chloro-1H-indazol-7-yl)-2-(1-(isopropylsulfonyl)piperidin-4-yl)-2-methylpropan-1-ol]
0.0001 to 10 µM: all assays above

CN(C)S(=O)(=O)N1CCC(C(C)(C)C(O)c2cc(Cl)cc3cn[nH]c23)CC1 (centres unmarked) [Compound P-0308, 4-(1-(5-chloro-1H-indazol-7-yl)-1-hydroxy-2-methylpropan-2-yl)-N,N-dimethylpiperidine-1-sulfonamide]
0.0001 to 10 µM: all assays above

CC(C)(C1CCN(S(=O)(=O)c2ccccc2)CC1)C(O)c1cc(Cl)cc2cn[nH]c12 (centres unmarked) [Compound P-0309, 1-(5-chloro-1H-indazol-7-yl)-2-methyl-2-(1-(phenylsulfonyl)piperidin-4-yl)propan-1-ol]
0.0001 to 10 µM: all assays above

CC(=O)N1CCC(C(C)(C)C(O)c2cc(Cl)cc3cn[nH]c23)CC1 (centres unmarked) [Compound P-0310, 1-(4-(1-(5-chloro-1H-indazol-7-yl)-1-hydroxy-2-methylpropan-2-yl)piperidin-1-yl)ethan-1-one]
0.0001 to 10 µM: all assays above

CCC(=O)N1CCC(C(C)(C)C(O)c2cc(Cl)cc3cn[nH]c23)CC1 (centres unmarked) [Compound P-0311, 1-(4-(1-(5-chloro-1H-indazol-7-yl)-1-hydroxy-2-methylpropan-2-yl)piperidin-1-yl)propan-1-one]
0.0001 to 10 µM: all assays above

CC(C)(C1CCN(C(=O)C2CC2)CC1)C(O)c1cc(Cl)cc2cn[nH]c12 (centres unmarked) [Compound P-0312, (4-(1-(5-chloro-1H-indazol-7-yl)-1-hydroxy-2-methylpropan-2-yl)piperidin-1-yl)(cyclopropyl) methanone]
0.0001 to 10 µM: all assays above

CNC(=O)N1CCC(C(C)(C)C(O)c2cc(Cl)cc3cn[nH]c23)CC1 (centres unmarked) [Compound P-0314, 4-(1-(5-chloro-1H-indazol-7-yl)-1-hydroxy-2-methylpropan-2-yl)-N-methylpiperidine-1-carboxamide]
0.0001 to 10 µM: all assays above

CC(C)NC(=O)N1CCC(C(C)(C)C(O)c2cc(Cl)cc3cn[nH]c23)CC1 (centres unmarked) [Compound P-0315, 4-(1-(5-chloro-1H-indazol-7-yl)-1-hydroxy-2-methylpropan-2-yl)-N-isopropylpiperidine-1-carboxamide]
0.0001 to 10 µM: all assays above

CC(C)(C1CCN(C(=O)NC2CCCC2)CC1)C(O)c1cc(Cl)cc2cn[nH]c12 (centres unmarked) [Compound P-0316, 4-(1-(5-chloro-1H-indazol-7-yl)-1-hydroxy-2-methylpropan-2-yl)-N-cyclopentylpiperidine-1-carboxamide]
0.0001 to 10 µM: all assays above

CC(C)(C1CCN(C(=O)Nc2ccccc2)CC1)C(O)c1cc(Cl)cc2cn[nH]c12 (centres unmarked) [Compound P-0317, 4-(1-(5-chloro-1H-indazol-7-yl)-1-hydroxy-2-methylpropan-2-yl)-N-phenylpiperidine-1-carboxamide]
0.0001 to 10 µM: all assays above

CN1CCC(C(C)(C)C(O)c2cc(Cl)cc3cn[nH]c23)CC1 (centres unmarked) [Compound P-0318, 1-(5-chloro-1H-indazol-7-yl)-2-methyl-2-(1-methylpiperidin-4-yl)propan-1-ol]
0.0001 to 10 µM: all assays above

CC(C)(C1CCN(C2CC2)CC1)C(O)c1cc(Cl)cc2cn[nH]c12 (centres unmarked) [Compound P-0319, 1-(5-chloro-1H-indazol-7-yl)-2-(1-cyclopropylpiperidin-4-yl)-2-methylpropan-1-ol]
0.0001 to 10 µM: all assays above

CC(C)(C1CCN(C2CCCC2)CC1)C(O)c1cc(Cl)cc2cn[nH]c12 (centres unmarked) [Compound P-0320, 1-(5-chloro-1H-indazol-7-yl)-2-(1-cyclopentylpiperidin-4-yl)-2-methylpropan-1-ol]
0.0001 to 10 µM: all assays above

COC(=O)N1CCC(C(C)(C)C(O)c2cc(Cl)cc3cn[nH]c23)CC1 (centres unmarked) [Compound P-0321, methyl 4-(1-(5-chloro-1H-indazol-7-yl)-1-hydroxy-2-methylpropan-2-yl)piperidine-1-carboxylate]
0.0001 to 10 µM: all assays above

CCOC(=O)N1CCC(C(C)(C)C(O)c2cc(Cl)cc3cn[nH]c23)CC1 (centres unmarked) [Compound P-0322, ethyl 4-(1-(5-chloro-1H-indazol-7-yl)-1-hydroxy-2-methylpropan-2-yl)piperidine-1-carboxylate]
0.0001 to 10 µM: all assays above

CC(C)OC(=O)N1CCC(C(C)(C)C(O)c2cc(Cl)cc3cn[nH]c23)CC1 (centres unmarked) [Compound P-0323, isopropyl 4-(1-(5-chloro-1H-indazol-7-yl)-1-hydroxy-2-methylpropan-2-yl)piperidine-1-carboxylate]
0.0001 to 10 µM: all assays above

CC(C)(C1CCN(S(N)(=O)=O)CC1)C(O)c1cc(Cl)cc2cn[nH]c12 (centres unmarked) [Compound P-0324, 4-(1-(5-chloro-1H-indazol-7-yl)-1-hydroxy-2-methylpropan-2-yl)piperidine-1-sulfonamide]
0.0001 to 10 µM: all assays above

CC(C)(C1CCN(C(N)=O)CC1)C(O)c1cc(Cl)cc2cn[nH]c12 (centres unmarked) [Compound P-0325, 4-(1-(5-chloro-1H-indazol-7-yl)-1-hydroxy-2-methylpropan-2-yl)piperidine-1-carboxamide]
0.0001 to 10 µM: all assays above

COC(=O)C12CCC(C(O)c3cc(Cl)cc4cn[nH]c34)(CC1)CC2 (centres unmarked) [Compound P-0326, methyl 4-((5-chloro-1H-indazol-7-yl)(hydroxy)methyl)bicyclo [2.2.2]octane-1-carboxylate]
0.0001 to 10 µM: all assays above

O=C(O)C12CCC(C(O)c3cc(Cl)cc4cn[nH]c34)(CC1)CC2 (centres unmarked) [Compound P-0327, 4-((5-chloro-1H-indazol-7-yl)(hydroxy)methyl)bicyclo [2.2.2]octane-1-carboxylic acid]
0.0001 to 10 µM: all assays above

OCC12CCC(C(O)c3cc(Cl)cc4cn[nH]c34)(CC1)CC2 (centres unmarked) [Compound P-0328, (5-chloro-1H-indazol-7-yl)(4-(hydroxymethyl)bicyclo[2.2.2]octan-1-yl)methanol]
0.0001 to 10 µM: all assays above
